Data: publication PMC12040169 (PLOS Biology, 2025)

Assay: in vitro
Settings: human, hela cells, % viability

| SMILES | viability at 28.5 h, 10 µM [%] |
| --- | --- |
| N#CCCN(C(=O)NCc1cccc(C(F)(F)F)c1)C1CCCCC1 [CBK156350] | 96.8 |
| Cc1oc(C2CC2)cc1C(=O)N1CCn2c(nnc2C2CC2)C1 [CBK283687] | 94.9 |
| O=C(NCCc1ccccn1)N1CCCN(Cc2cccs2)CC1 [CBK305283] | 80.5 |
| O=C(c1ccoc1)N1CCC2(CCCN(CCCn3c(=O)[nH]c4ccccc43)C2)C1 (centres unmarked) [CBK132818] | 90.1 |
| Cc1ccc(OCC(=O)Nc2cccnc2)c(-n2nc3ccccc3n2)c1 [CBK270281] | 90.9 |
| Sc1nnc(COc2ccccc2)n1/N=C/c1cccnc1 [CBK265308] | 103 |
| Cc1cc(C)cc(OCC(=O)NNC(=O)CN2C(=O)c3ccccc3C2=O)c1 [CBK262394] | 91.4 |
| Cc1cccc(/C(C#N)=C\c2cn(CC(=O)O)c3ccccc23)c1 [CBK269457] | 110 |
| CN1CCN(c2ccc(-c3ccc(Cl)cc3)cn2)CC1 [CBK036945] | 95.2 |
| COc1ccc(-c2cc(NC3CCCCC3)ncn2)cc1 [CBK090904] | 96.8 |
| O=S(=O)(Nc1nccnc1-c1ccc2c(c1)OCO2)c1cccc(Cl)c1 [CBK050951] | 92.4 |
| CCC1C(=O)NCCN1C(=O)c1cc2cc(C)ccc2n1C (centres unmarked) [CBK281729] | 110 |
| COc1ccc(C(=O)CSc2nnc(C)[nH]2)cc1[N+](=O)[O-] [CBK264350] | 95.5 |
| Cc1cc(C)cc(NC(=O)C2CC(=O)N=C(NCc3ccccc3)N2)c1 (centres unmarked) [CBK269054] | 87.1 |
| CCOC(=O)CN1C(c2ccccc2O)Nc2ccc(Br)cc2C1c1ccccc1 (centres unmarked) [CBK263130] | 90.5 |
| CN(c1cccc(C#N)c1)C1CCN(c2ncnc3c2cnn3C)C1 (centres unmarked) [CBK304720] | 87.4 |
| O=C(COc1cccc(Cl)c1)NNC(=S)Nc1ccccc1 [CBK267180] | 88.4 |
| Cc1nccn1CCC1CCN(C(=O)c2cn3ccccc3n2)CC1 [CBK281868] | 91.2 |
| CC(=O)NCCCCCC(=O)Nc1ccc(Cl)cn1 [CBK091341] | 92.3 |
| CCc1ocnc1C(=O)NC1CCCN(Cc2ccccc2F)C1 (centres unmarked) [CBK306924] | 104 |
| COc1cc(OC)c(OC)cc1CN1CCN(Cc2ccco2)CC1 [CBK074509G] | 92.9 |
| CCN1CCCC1CNC(=O)c1ccc(-c2ccc(OC)cc2)nc1N(C)C(C)=O (centres unmarked) [CBK076491] | 98.3 |

| SMILES | viability at 28.5 h, 10 µM [%] |
| --- | --- |
| C#CCN1C(=O)C2(OCCO2)c2cccc(C)c21 [CBK019069] | 95.1 |
| COc1cc(CNc2nccnc2-c2ccco2)cc(OC)c1OC [CBK037320] | 89.9 |
| CNC(=O)c1ccc(-c2ccco2)nc1N1CCOCC1 [CBK106212] | 108 |
| CCN(CC)C(=O)c1[nH]c2ccccc2c1NS(=O)(=O)Cc1ccccc1 [CBK050107] | 108 |
| CC(C)n1c(=O)n(CC(=O)NC2CCCC2)c2cccnc21 [CBK283700] | 89.2 |
| CC(=O)Nc1cccc(Oc2cnc(-c3ccc(OC(F)(F)F)cc3)c(N)n2)c1 [CBK145119] | 91.9 |
| Cc1ccccc1C(c1cnccn1)N(C)C(=O)C1CCN(S(=O)(=O)C(C)C)CC1 (centres unmarked) [CBK060242] | 101 |
| NC(=O)COc1ccc(/C=C/c2cc(C(F)(F)F)[nH]c(=O)n2)cc1 [CBK269475] | 90.6 |
| COc1ccc(OC)c(C(O)c2nc3ccccc3n2C(C)C)c1 (centres unmarked) [CBK263474] | 92.7 |
| CS(=O)(=O)c1nc2cccnc2s1 [CBK017260] | 95.2 |
| COc1cc(NC(=O)c2ccc3c(c2)C(=O)N(c2c(C)cc(C)cc2C)C3=O)c(C(=O)O)cc1OC [CBK264074] | 91.1 |
| S=C1NCC(COc2ccc(Cl)cc2)O1 (centres unmarked) [CBK015647] | 98.9 |
| O=C(Nc1ccccc1-n1cccc1)C1Cc2c([nH]c3ccccc23)C2(CCN(Cc3ccccc3)C2)N1 (centres unmarked) [CBK059395] | 95.9 |
| c1ccc2nc(N3CCCC3)c(SCCc3cnccn3)nc2c1 [CBK103695] | 106 |
| Cc1ccc(C(=O)N2CCC(C(=O)NC(c3ccccc3)c3ccc4ccccc4n3)CC2)cc1 (centres unmarked) [CBK059663] | 87.9 |
| CCn1c(C(O)c2ccccc2)n[nH]c1=S (centres unmarked) [CBK015110] | 90.5 |
| CSc1cccc(NC(=O)CN(C)S(=O)(=O)c2ccc3ccccc3c2)c1 [CBK266708] | 86.2 |
| Cc1noc(NS(=O)(=O)c2ccc(NC(=O)COc3ccc(Cl)cc3Cl)cc2)c1C [CBK262142] | 89.3 |
| O=C(CCCc1ccccc1)Nc1scc2c(=O)oc3ccccc3c12 [CBK265435] | 90.1 |
| COc1ccc(S(=O)(=O)N2CCN(C(=O)COc3ccc(C)cc3)CC2)cc1 [CBK263354] | 90.2 |
| CN(Cc1ccc(CN2CCOC(c3ccccc3)C2)o1)S(C)(=O)=O (centres unmarked) [CBK306808] | 88.2 |
| O=C(O)C1CCN(C(=O)Cc2c[nH]c3ccccc23)CC1 [CBK202747] | 82.7 |

| SMILES | viability at 28.5 h, 10 µM [%] |
| --- | --- |
| COCCCn1c(SCc2csc(-c3ccc(C)cc3)n2)n[nH]c1=O [CBK295657] | 93.3 |
| O=S(=O)(Nc1cccc(C(F)(F)F)c1)c1cc2c(N3CCNCC3)nccc2s1 [CBK039085C] | 103 |
| O=C(c1cc(-c2ccccc2)n[nH]c1=O)N1CCc2ccccc2C1 [CBK291216] | 91.2 |
| COc1ccc(-c2oc3ncn4nc(COc5ccccc5C)nc4c3c2-c2ccc(OC)cc2)cc1 [CBK265283] | 94.8 |
| O=C(CN(c1cc(Cl)ccc1Cl)S(=O)(=O)c1ccccc1)Nc1cccnc1 [CBK268708] | 59.3 |
| Cc1ccc(S(=O)(=O)Nc2nc3ccccc3nc2Nc2ccc(C(=O)O)cc2)cc1C [CBK300516] | 91.5 |
| CCC(=O)NC(=S)Nc1ccc(C(=O)N2CCCC2)cc1 [CBK288464] | 108 |
| Cc1cc(Cn2nnc(-c3ccc(Br)cc3)n2)cc(C)c1O [CBK291129] | 119 |
| COc1ccc(NC(=O)C(=O)NCc2ccncc2)cc1 [CBK287723] | 105 |
| CSc1nnc(CC2CCN(C(=O)c3cc(C)on3)CC2)n1C [CBK307481] | 108 |
| O=C(O)c1ccc(-c2n[nH]c(=O)c3ccccc23)cc1 [CBK287148] | 108 |
| C[C@@H]1C(=O)O[C@H]2[C@H]1CC[C@@]1(C)Cc3sc(NC(=O)CCC(=O)O)nc3[C@@H](C)[C@H]21 [CBK289429] | 98.7 |
| CS(=O)(=O)N(Cc1ccccc1)c1ccc(C(=O)N2CCN(Cc3ccccc3)CC2)cc1 [CBK264134] | 114 |
| Cc1nc(-c2ccccc2)c(CC(=O)N(C)CCN(C)C)s1 [CBK282725] | 83.3 |
| NC(=O)c1ccccc1NC(=O)C1CCC(C(=O)Nc2ccccc2C(N)=O)CC1 (centres unmarked) [CBK268716] | 87.1 |
| COc1ncc(-c2cn3ccnc3c(N3CCN(CCO)CC3)n2)c(OC)n1 [CBK037869] | 107 |
| O=C(O)CCC(=O)N1CCC(c2nnc3ccccn23)CC1 [CBK287920] | 104 |
| CCOC(=O)c1ccc(N2C(=O)CC(N3CCN(c4ncccn4)CC3)C2=O)cc1 (centres unmarked) [CBK263306] | 105 |
| Cc1ccn(CCNC(=O)c2cc3ccc(F)cc3[nH]2)n1 [CBK283209] | 91.9 |
| COc1cc(C#N)ccc1Oc1ccc([N+](=O)[O-])cn1 [CBK002569] | 108 |
| COc1ccc(C(=O)Nc2noc3nc(C)ccc23)cc1OC [CBK287832] | 89.7 |
| O=C(c1ccc(Cl)cc1)N1CCN(C(=O)c2cc(O)nc3ccccc23)CC1 [CBK296666] | 103 |

| SMILES | viability at 28.5 h, 10 µM [%] |
| --- | --- |
| Cc1cc(CNC(=O)C2=CC(=O)CC(C)(C)O2)no1 [CBK153281] | 104 |
| Cc1ccnn1CCC(=O)N1CCC(c2cc3cccnc3[nH]2)CC1 [CBK284912] | 95.2 |
| Cc1ccc(-c2ncc(OCc3ccccc3)nc2N)c(C)c1 [CBK145129] | 90.6 |
| CSc1ccccc1CNC(=O)c1cc(Br)cnc1N(C)S(C)(=O)=O [CBK076529] | 96.7 |
| Cc1cc(C(=O)N2CCC(C(=O)NC(c3cnccn3)c3ccccc3C)CC2)no1 (centres unmarked) [CBK059810] | 93.6 |
| NC(CC(=O)O)c1ccc(OCCc2ccccc2)cc1 (centres unmarked) [CBK287053] | 91.6 |
| CS(=O)(=O)N(CC(=O)NC1CCCCCCC1)c1ccccc1 [CBK270112] | 96.1 |
| Cc1ccc(-c2noc(CN3CCN(Cc4ccccc4)CC3)n2)cc1 [CBK267288] | 91.3 |
| CCN(CCC(F)(F)F)C(=O)Cc1csc(NC(=O)c2ccoc2C)n1 [CBK305729] | 83.3 |
| Cc1nc(-c2cccnc2)[nH]c(=O)c1CC(=O)N1CCSCC1 [CBK305944] | 90.7 |
| O=C(CCn1c(C(F)(F)F)cc2cccnc21)N1CCCC1 [CBK284962] | 106 |
| Cn1c(=O)oc2ccc(C(=O)Nc3cccc(-c4ccc(F)cc4)c3)cc21 [CBK286023] | 84.9 |
| Cc1ccc(CS(=O)(=O)N(CCO)C2CCC2)c(F)c1 [CBK304101] | 82.2 |
| O=C(O)CCc1ccc(-c2cccs2)n1-c1ccc(Cl)c(Cl)c1 [CBK264797] | 88.7 |
| CCN(C(=O)c1cc2ccc(N(C)C)cc2[nH]1)C1CCN(C)CC1 [CBK281867] | 79.8 |
| CCOC(=O)C1(Cc2ccc(F)cc2F)CCCN(C(=O)CC)C1 (centres unmarked) [CBK307012] | 92.7 |
| OCC1CCN(Cc2cnn(C3CCCCC3)c2)C1 (centres unmarked) [CBK283086] | 88.4 |
| Fc1ccc(COc2cccc(CNCc3ccccn3)c2)cc1 [CBK269987C] | 109 |
| CC1CCCCC1NC(=O)c1ncoc1-c1cccs1 (centres unmarked) [CBK283973] | 84.8 |
| Cc1cccc(-n2c(C3CCCNC3=O)n[nH]c2=S)c1 (centres unmarked) [CBK012842] | 89 |
| COc1cc2c(cc1OC)CN(CCO)CC2 [CBK138322] | 108 |

Same assay, conditions: human, hela cells, % viability, bulk resorufin, single well

| SMILES | viability at 28.5 h, 10 µM [%] |
| --- | --- |
| COc1cc(/C=N/O)ccc1Oc1ccc([N+](=O)[O-])cc1[N+](=O)[O-] [CBK261651] | 92.5 |
| CN(C)CCN/C=C1/C(=O)NC(=S)N(c2ccccc2Cl)C1=O [CBK261826] | 86.4 |
